Measured values: patent US10676485B2, “Macrocyclic MCL-1 inhibitors and methods of use” (AbbVie Inc., priority 2017, dated 2020)
Where two headings read alike, the source gives them in different places.

What was measured:
[1] = tested on: NCI-H929 human multiple myeloma tumor cell line; experiment: NCI-H929 cell viability assay (CellTiter-Glo); format: cell-based; conditions: NCI-H929, read-out: H929 Viability IC50 (μM), 10% FBS, 24 hours of compound treatment
[2] = tested on: AMO-1 human multiple myeloma tumor cell line; experiment: AMO-1 cell viability assay (CellTiter-Glo); format: cell-based; conditions: AMO1, read-out: AMO-1 Viability IC50 (μM), 10% FBS, 24 hours of compound treatment
GST-MCL-1 = GST-MCL-1 (Homo sapiens (Human), UniProt Q07820); experiment: TR-FRET MCL-1 binding assay (competition with probe F-Bak)
Summary of the method: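 Tested both in plain buffer and with 10% human serum. Top concentration 25 μM, 11 three-fold steps, 2 h room-temperature incubation of GST-MCL-1 with Tb-labelled anti-His antibody and F-Bak probe. Time-resolved FRET: 340 nm excitation, 520/525 and 495/510 nm emission.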

[3] = read-out: MCL-1 Binding Ki (nM, 10% HS), in the presence of 10% HS
[4] = without HS, read-out: MCL-1 Binding Ki

Sequence of GST-MCL-1 (Q07820 whole entry): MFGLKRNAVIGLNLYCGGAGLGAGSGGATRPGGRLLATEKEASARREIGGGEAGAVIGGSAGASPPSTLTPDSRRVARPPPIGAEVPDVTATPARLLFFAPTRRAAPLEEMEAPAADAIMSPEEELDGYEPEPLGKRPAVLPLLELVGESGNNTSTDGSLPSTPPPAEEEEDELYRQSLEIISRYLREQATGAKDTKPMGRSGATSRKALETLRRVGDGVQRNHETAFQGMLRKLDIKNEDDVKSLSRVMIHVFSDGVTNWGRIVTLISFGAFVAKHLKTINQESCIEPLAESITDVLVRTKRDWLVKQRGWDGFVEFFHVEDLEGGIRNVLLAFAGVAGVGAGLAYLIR

| SMILES | IC50 [1] [µM] | IC50 [2] [µM] | Ki (GST-MCL-1; [3]) [nM] | Ki (GST-MCL-1; [4]) [nM] |
| --- | --- | --- | --- | --- |
| Cc1c(Cl)c2c(Cl)c(C)c1-c1c(-c3ccc(F)cc3)sc3ncnc(c13)O[C@@H](C(=O)O)Cc1cc(ccc1OCc1ccnc([C@H]3CC[C@](F)(COC[C@H]4COCCO4)CC3)n1)OC[C@@H](CN1CCN(C)CC1)O2 [Example 39, (7R,16R)-19,23-dichloro-10-({2-[(1S,4s)-4-({[(2R)-1,4-dioxan-2-yl]methoxy}methyl)-4-fluorocyclohexyl]pyrimidin-4-yl}methoxy)-1-(4-fluorophenyl)-20,22-dimethyl-16-[(4-methylpiperazin-1-yl)methyl]-7,8,15,16-tetrahydro-18,21-etheno-13,9-(metheno)-6,14,17-trioxa-2-thia-3,5-diazacyclononadeca[1,2,3-cd]indene-7-carboxylic acid] | 0.000239 | 0.000235 | 0.06 | 0.004 |
| Cc1c(Cl)c2c(Cl)c(C)c1-c1c(C3=CCCC3)sc3ncnc(c13)O[C@@H](C(=O)O)Cc1cc(ccc1OCc1ccnc(C3=CC[C@](F)(COC[C@@H]4COCCO4)CC3)n1)OC[C@@H](CN1CCN(C)CC1)O2 [Example 35, (7R,16R)-19,23-dichloro-1-(cyclopent-1-en-1-yl)-10-({2-[(4S)-4-({[(2S)-1,4-dioxan-2-yl]methoxy}methyl)-4-fluorocyclohex-1-en-1-yl]pyrimidin-4-yl}methoxy)-20,22-dimethyl-16-[(4-methylpiperazin-1-yl)methyl]-7,8,15,16-tetrahydro-18,21-etheno-13,9-(metheno)-6,14,17-trioxa-2-thia-3,5-diazacyclononadeca[1,2,3-cd]indene-7-carboxylic acid] | 0.00111 | 0.000261 | 0.52 | 0.027 |
| Cc1c(Cl)c2c(Cl)c(C)c1-c1c(-c3ccc(F)cc3)sc3ncnc(c13)O[C@@H](C(=O)O)Cc1cc(ccc1OCc1ccnc(-c3ccc(OC[C@@H]4COCCO4)nc3)n1)OC[C@@H](CN1CCN(C)CC1)O2 [Example 6, (7R,16R)-19,23-dichloro-10-{[2-(6-{[(2S)-1,4-dioxan-2-yl]methoxy}pyridin-3-yl)pyrimidin-4-yl]methoxy}-1-(4-fluorophenyl)-20,22-dimethyl-16-[(4-methylpiperazin-1-yl)methyl]-7,8,15,16-tetrahydro-18,21-etheno-13,9-(metheno)-6,14,17-trioxa-2-thia-3,5-diazacyclononadeca[1,2,3-cd]indene-7-carboxylic acid] | 0.000359 | 0.000135 | 6.09 | 0.926 |
| Cc1c(Cl)c2c(Cl)c(C)c1-c1c(-c3ccc(F)cc3)sc3ncnc(c13)O[C@@H](C(=O)O)Cc1cc(ccc1OCc1ccnc(N3CCO[C@@H](COCC4COCCO4)C3)n1)OC[C@@H](CN1CCN(C)CC1)O2 (stereo partly drawn) [Example 20, (7R,16R)-19,23-dichloro-10-({2-[(2R)-2-{[(1,4-dioxan-2-yl)methoxy]methyl}morpholin-4-yl]pyrimidin-4-yl}methoxy)-1-(4-fluorophenyl)-20,22-dimethyl-16-[(4-methylpiperazin-1-yl)methyl]-7,8,15,16-tetrahydro-18,21-etheno-13,9-(metheno)-6,14,17-trioxa-2-thia-3,5-diazacyclononadeca[1,2,3-cd]indene-7-carboxylic acid] | 0.000513 | 0.000286 | 0.47 | 0.058 |
| Cc1c(Cl)c2c(Cl)c(C)c1-c1c(-c3ccc(F)cc3)sc3ncnc(c13)O[C@@H](C(=O)O)Cc1cc(ccc1OCc1ccnc(C3=CC[C@@](F)(COC[C@H]4COCCO4)CC3)n1)OC[C@@H](CN1CCN(C)CC1)O2 [Example 43, (7R,16R)-19,23-dichloro-10-({2-[(4R)-4-({[(2R)-1,4-dioxan-2-yl]methoxy}methyl)-4-fluorocyclohex-1-en-1-yl]pyrimidin-4-yl}methoxy)-1-(4-fluorophenyl)-20,22-dimethyl-16-[(4-methylpiperazin-1-yl)methyl]-7,8,15,16-tetrahydro-18,21-etheno-13,9-(metheno)-6,14,17-trioxa-2-thia-3,5-diazacyclononadeca[1,2,3-cd]indene-7-carboxylic acid] | 0.000365 | 0.000346 | 0.18 | 0.02 |
| Cc1c(Cl)c2c(Cl)c(C)c1-c1c(-c3ccc(F)cc3)sc3ncnc(c13)O[C@@H](C(=O)O)Cc1cc(ccc1OCc1ccnc(-c3ccc(OC[C@H]4COCCO4)nc3)n1)OC[C@@H](CN1CCN(C)CC1)O2 [Example 5, (7R,16R)-19,23-dichloro-10-{[2-(6-{[(2R)-1,4-dioxan-2-yl]methoxy}pyridin-3-yl)pyrimidin-4-yl]methoxy}-1-(4-fluorophenyl)-20,22-dimethyl-16-[(4-methylpiperazin-1-yl)methyl]-7,8,15,16-tetrahydro-18,21-etheno-13,9-(metheno)-6,14,17-trioxa-2-thia-3,5-diazacyclononadeca[1,2,3-cd]indene-7-carboxylic acid] | 0.00037 | 0.000178 | 0.71 | 0.048 |
| Cc1c(Cl)c2c(Cl)c(C)c1-c1c(-c3ccc(F)cc3)sc3ncnc(c13)O[C@@H](C(=O)O)Cc1cc(ccc1OCc1ccnc(OC[C@@H]3COCCO3)n1)OC[C@@H](CN1CCN(C)CC1)O2 [Example 24, (7R,16R)-19,23-dichloro-10-[(2-{[(2S)-1,4-dioxan-2-yl]methoxy}pyrimidin-4-yl)methoxy]-1-(4-fluorophenyl)-20,22-dimethyl-16-[(4-methylpiperazin-1-yl)methyl]-7,8,15,16-tetrahydro-18,21-etheno-9,13-(metheno)-6,14,17-trioxa-2-thia-3,5-diazacyclononadeca[1,2,3-cd]indene-7-carboxylic acid] | 0.00197 | 0.000687 | 0.38 | 0.038 |
| COc1ccccc1-c1nccc(COc2ccc3cc2C[C@H](C(=O)O)Oc2ncnc4sc(C[C@H]5COCCO5)c(c24)-c2c(C)c(Cl)c(c(Cl)c2C)O[C@H](CN2CCN(C)CC2)CO3)n1 [Example 19, (7R,16R)-19,23-dichloro-1-{[(2S)-1,4-dioxan-2-yl]methyl}-10-{[2-(2-methoxyphenyl)pyrimidin-4-yl]methoxy}-20,22-dimethyl-16-[(4-methylpiperazin-1-yl)methyl]-7,8,15,16-tetrahydro-18,21-etheno-13,9-(metheno)-6,14,17-trioxa-2-thia-3,5-diazacyclononadeca[1,2,3-cd]indene-7-carboxylic acid] | 0.0152 | 0.00974 | 0.64 | 0.156 |
| Cc1c(Cl)c2c(Cl)c(C)c1-c1c(-c3ccc(F)cc3)sc3ncnc(c13)O[C@@H](C(=O)O)Cc1cc(ccc1OCc1ccnc(C3=CC[C@](F)(COC[C@@H]4COCCO4)CC3)n1)OC[C@@H](CN1CCN(C)CC1)O2 [Example 45, (7R,16R)-19,23-dichloro-10-({2-[(4S)-4-({[(2S)-1,4-dioxan-2-yl]methoxy}methyl)-4-fluorocyclohex-1-en-1-yl]pyrimidin-4-yl}methoxy)-1-(4-fluorophenyl)-20,22-dimethyl-16-[(4-methylpiperazin-1-yl)methyl]-7,8,15,16-tetrahydro-18,21-etheno-13,9-(metheno)-6,14,17-trioxa-2-thia-3,5-diazacyclononadeca[1,2,3-cd]indene-7-carboxylic acid] | 0.000258 | 0.000249 | 0.16 | 0.012 |
